Test results: US6696487B2, “Fungicidal phenyl(thio)urea and phenyl(thio)carbamate derivatives” (Bayer Cropscience S.A., priority 2000, dated 2004)

## CCN(C)C(=S)Nc1cc(C)c(Oc2cccc(C(C)(C)C)c2)cc1C [Compound 27, N′-(4-{[3-(1,1-dimethylethyl)phenyl]oxy}-2,5-dimethylphenyl)-N-ethyl-N-methylthiourea]
  melting point: 125 °C
